# Measured values taken from US12274678B2, “Cannabinoids and uses thereof” (TECHNION RESEARCH & DEVELOPMENT FOUNDATION LIMITED, priority 2019, dated 2025).
# Where a SMILES comes first, the peptide text is derived from it. [ ]: non-standard residue; d: D form. The star is where a group is joined. Nle = CCCC[C@H](N)C(=O)O; Cbz = O=C(OCc1ccccc1)*
# Columns and labels:
# Type in all cases: cell-based, human
# NICD [1] = test: Western blot of NICD in Molt-4 cells pretreated with proteasome inhibitors, then Extract 12; conditions: MOLT-4 cells pretreated 1 h (MG132 2.5-7.5 μM; MG101 10 μM), then Extract 12 5 μg/mL 3 h
# Experimental: FIG. 14 is a micrograph of a western blot analysis of NICD in Molt-4 cells pretreated with MG132 (proteasome inhibitor; 0, 2.5 μM, 5 μM, 7.5 μM) for 1 h and then treated with vehicle or Extract 12 (5 μg/mL) for 3 h. β-tubulin served as a loading control.
# FIG. 15 is a micrograph of western blot analysis of NICD in Molt-4 cells pretreated with MG101 (proteasome inhibitor; 0, 10 μM) for 1 h and then treated with vehicle or Extract 12 (5 μg/mL) for 3 h. β-tubulin served as a loading control.
# (§1) Cell Lysis and Western Blot Analyses
# Following treatment, cells were solubilized in radioimmunoprecipitation assay buffer (RIPA) (Sigma-Aldrich, R0278) and the protein concentration in lysates were determined using a Bradford reagent (Sigma-Aldrich, B6916). Equal amounts of protein were resolved by Novex™ 4-20% Tris-Glycine Mini Gels (Thermo Fisher Scientific, XP04200BOX) and electrophoretically transferred to a nitrocellulose membrane (Bio-Rad, 1704159S). Membranes were blocked with TBS 0.1% Tween 20 buffer containing 5% bovine serum albumin (Sigma, A7906) for 1 h. […] Immunoreactive bands were detected by Luminata™ HRP substrate (Millipore, WBLUR0500) and visualized using a MicroChemi imager (DNR Bioimaging Systems).
# MOLT-4 cells = test: AlamarBlue cell viability assay, MOLT-4; conditions: CBD, CBDV, CF1 separately and in combinations, 24 h
# Experimental: (§2) Cells were cultured in 96-well plates. At 100,000 cells/well the media was replaced with RPMI containing 0.5% FBS and different Cannabis extracts. Extracts were added in triplicate at a concentration of 1-5 μg/mL. DMSO was used as the control and applied in the same amount as in the diluted extracts. An alamarBlue® reagent was used to quantitate viability (according to the manufacturer's Instructions). Viability was measured following 24 h of incubation using fluorescence spectrophotometry at excitation and emission wavelengths of 560 and 590 nm, respectively. Viability was calculated as percent reduction between treated and control cells.
# CCRF-CEM cells = test: AlamarBlue cell viability assay, CCRF-CEM; conditions: CBD, CBDV, CF1 separately and in combinations, 24 h
# Experimental: as §2
# NICD [2] = test: Immunoblotting of NICD protein in cells; conditions: MOLT-4 cells, 3 μg/mL, 24 h
# Experimental: as §1
# Following treatment, cells were solubilized in radioimmunoprecipitation assay buffer (RIPA) (Sigma-Aldrich, R0278) and the protein concentration in lysates were determined using a Bradford reagent (Sigma-Aldrich, B6916). Equal amounts of protein were resolved by Novex™ 4-20% Tris-Glycine Mini Gels (Thermo Fisher Scientific, XP04200BOX) and electrophoretically transferred to a nitrocellulose membrane (Bio-Rad, 1704159S). Membranes were blocked with TBS 0.1% Tween 20 buffer containing 5% bovine serum albumin (Sigma, A7906) for 1 h. The blots were then incubated overnight at 4° C. with Full Notch1 (Millipure ABS90), from Cell Signaling Technology Notch1 V1744 (4147S), c-Myc (13987), Hes1 (11988), anti-cleaved caspase-3 antibody (9664), Phospho-C-Jun (3270), C-Jun (9165), and β-tubulin (clone D3U1W, 86298) and Chac1 (ab76386) from abcam. This was followed by incubation with horseradish peroxidase-labeled matching secondary antibodies. Immunoreactive bands were detected by Luminata™ HRP substrate (Millipore, WBLUR0500) and visualized using a MicroChemi imager (DNR Bioimaging Systems).
Structure (SMILES),restoration of NICD protein level by proteasome inhibition (NICD [1]),MOLT-4 cell death / cell apoptosis in viability assay of cannabinoids (MOLT-4 cells),CCRF-CEM cell apoptosis in viability assay of cannabinoids (CCRF-CEM cells),NICD levels after cannabinoids (NICD [2])
CC(C)C[C@@H](C=O)NC(=O)[C@H](CC(C)C)NC(=O)[C@H](CC(C)C)NC(=O)OCc1ccccc1 [MG132] (Cbz-Leu-Leu-Leu-aldehyde),did not restore,,,
"C=C(C)[C@@H]1CCC(C)=C[C@H]1c1c(O)cc(CCC)cc1O [CBDV, cannabidivarin]",,produced cell apoptosis,produced cell apoptosis,decreasing NICD levels
"CCCCCc1cc(O)c(C2C=C(C)CCC2C(C)(C)O)c(O)c1 [CF1, 1,3-Benzenediol, 2-[(1R,6R)-6-(1-hydroxy-1-methylethyl)-3-methyl-2cyclohexen-1-yl]-5-pentyl]",,produced cell apoptosis,produced cell apoptosis,decreasing NICD levels
CCCC[C@@H](C=O)NC(=O)[C@H](CC(C)C)NC(=O)[C@H](CC(C)C)NC(C)=O [MG101] (Ac-Leu-Leu-[Nle]-aldehyde),did not restore,,,
"C=C(C)[C@@H]1CCC(C)=C[C@H]1c1c(O)cc(CCCCC)cc1O [CBD, cannabidiol, reference compound]",,produced cell apoptosis,produced cell apoptosis,decreasing NICD levels
